Test results: publication PMC7463999, “Antioxidant, Anti-inflammatory and Neuroprotective Profiles of Novel 1,4-Dihydropyridine Derivatives for the Treatment of Alzheimer’s Disease” (Antioxidants, 2020)
Where “and” joins values, the source holds several entries; their conditions need not be identical. Identical values can stand only once. Like-named read-outs stand apart in the source and are kept apart here.

Assays:
[1] = Oxygen Radical Absorbance Capacity (ORAC) assay; details: Trolox equivalents, ORAC of Trolox = 1.0; AAPH, fluorescein
[2] = DPPH reduction assay; details: DPPH 100 µM, 1 h in the dark
Description: The final solution was incubated during 1 h in the dark. […] Results are expressed as a percentage of DPPH reduction by subtracting blank absorbance (Absblank) to sample absorbance (Abssample) and corrected by control absorbance, (Abscontrol, DPPH alone, as expressed below: % DPPH reduction = [100 − ((Abssample − Absblank) × 100/Abscontrol)](1)
Briefly, the compounds under assay (150 µL) at the desired concentration (1, 10, 60 and 100 µM) in methanol/water (80/20) were added to a solution of DPPH in methanol/water (80/20) (150 µL, 100 µM), in a clear bottom 96-well plate, and the final solution was incubated 1 h in the dark. Then, DPPH absorbance of blank (methanol/water), control
Optima plate-reader (BMG Labtech, Ortenberg, Germany) in duplicate.
Results are expressed as % of absorbance (Abs) reduction of control after subtracting blank absorbance, as expressed
% DPPH reduction = [100 – (Abssample-Absblank) x 100]/Abscontrol

[3] = system: primary glial cultures stimulated with LPS; experiment: Nitrite production reduction (Griess) in LPS-stimulated mixed primary glial cultures; format: cell-based, rat
[4] = system: voltage-dependent Ca^2+ channels (VDCC); experiment: Voltage dependent calcium channels blockade assay (Fluo-4, 70 mM K+); format: cell-based, human; details: compounds at 10 μM, SH-SY5Y, basal = 100% response
Description: Free cytosolic Ca^2+ was measured using the fluorescence Ca^2+ indicator Fluo-4/AM. SH-SY5Y cells were seeded in 96-well black bottom transparent plates at a density of 60,000 cells per well and cultured until they reach confluence. Cells were incubated with the Ca^2+ sensitive dye Fluo-4/AM at 5 µM in Krebs-HEPES buffer (KH) (145 mM NaCl, 4.9 mM KCl, 1.2 mM MgCl2, 2 mM CaCl2, 10 mM HEPES, 11 mM glucose, pH 7.4), and 0.05% pluronic acid, for 1 h at 37 °C in the dark. Then, cells were washed twice with KH solution to remove the excess of probe and compounds in solution were added. Test compounds at 10 µM were incubated 10 min before K^+ 70 mM was applied to trigger cytosolic Ca^2+ increase. Fluorescence was measured in a fluorescence microplate reader (FLUOstar Optima, BMG, Ortenberg, Baden-Wuerttemberg, Germany) at excitation and emission wavelengths 485 and 520 nm, respectively. To normalize Fluo-4 signals, Triton X-100 (5%) and subsequently MnCl2 1 M were applied to the cells to register maximal and minimal fluorescence, respectively. Data were calculated as a percentage of Fluorescence increment with respect to Fmax − Fmin. The percentage of response was calculated considering basal conditions as 100% response.
Voltage dependent Calcium Channel Blockade Assay
Free cytosolic Ca2+ was measured using the fluorescence Ca2+ indicator Fluo-4/AM.
SH-SY5Y cells were seeded in 96-well black bottom transparent plates at a density of 60,000 cells per well until reaching confluence. Cells were incubated with the Ca2+ sensitive dye fluo-4 AM at 5 µM in Krebs-Hepes buffer (KH) (145 mM NaCl, 4.9 mM KCl, 1.2 mM MgCl2, 2 mM CaCl2, 10 mM HEPES, 11 mM glucose, pH 7.4), and 0.05 % pluronic acid, for 1 h at 37 °C in the dark. Then, cells were washed twice with KH solution to remove the excess of probe and compounds in solution were added. Tested compounds at 10 µM were incubated 10 min before K+ 70 mM was applied to evoke the increment of cytosolic Ca2+. The experiments were analyzed at excitation and emission wavelengths of 485 and 520 nm, respectively, and fluorescence was measured in a fluorescence microplate reader (FLUOstar Optima, BMG, Germany). To normalize Fluo-4 signals, Triton X-100 (5 %) and subsequently MnCl2 1 M were applied to cells for registering both maximal and minimal fluorescence, respectively. Data were calculated as % F increment respect to Fmax – Fmin. % of blockade was calculated considering basal conditions as 100 % response.
Then, the donor filter plate was carefully put on the acceptor plate to form a “sandwich”, which was left undisturbed for 4 h at 25 °C. During this time, the compounds diffused from the donor plate through the polar brain lipid membrane (area = 0.28 cm2) into the acceptor plate. After incubation, the donor plate was carefully removed. UV plate reader determined the concentration of compounds and commercial drugs in both acceptor and […]

[5] = Blood-brain barrier permeation assay (PAMPA), porcine brain lipid; format: in vitro ADME
[6] = system: blood-brain barrier (passive diffusion); experiment: as above; format: in vitro ADME; details: PAMPA; 100 µM, PBS pH 7.4, 4 h at 25 °C, mean ± SEM; read-out: PAMPA Pe
[7] = system: rat hippocampal slices; experiment: ROS production (H2DCFDA) in rat hippocampal slices treated with okadaic acid; format: cell-based; details: OA 1 μM + compound 10 μM, 6 h
[8] = system: neuroblastoma cell line SH-SY5Y; experiment: Cytotoxicity (neurotoxicity) in SH-SY5Y, MTT; details: 24 h
Description: LD50 in SH-SY5Y and primary glial culture cells
(§1) cell line SH-SY5Y and primary glial cultures. Viability was measured as
(§2) MTT reduction in presence of increasing concentrations of derivatives.
(§3) Values are expressed as LD50 calculated from dose-response curves of four
(§4) different concentrations. Data are expressed as mean  SEM of five
different experiments in triplicate.
(§5) SH-SY5Y or primary glial cells were cultured in 96-well plates for 24 h. Then, cells
(§6) were treated with the compounds at 10, 30 and 100 µM in the corresponding culture media
(§7) with 1 % FBS After 24 h, cell viability was assessed by the MTT-reduction assay. Control
(§8) cells were incubated with the same concentration of DMSO (0.1 % final concentration)
Viability assay by MTT-reduction
(§9) SH-SY5Y, primary glial culture cells and rat hippocampal slices viability was
(§10) measured by the MTT assay [11]. This method is based on the cleavage of the tetrazolium
(§11) ring of MTT by active dehydrogenases, generating a formazan precipitate. At the end of
(§12) the neuroprotection or toxicity experiments, an MTT solution was added to each well to
(§13) reach a final concentration of 0.5 mg/mL. After 2 additional hours of incubation, the
(§14) solution was replaced by 100 or 300 µL of DMSO to solubilize the formazan precipitate.
(§15) in control cells was considered as 100 % of cell survival and used to reference all

[9] = biological target: GSK-3β (Homo sapiens, UniProt P49841); experiment: GSK-3β inhibition, Kinase-Glo luminescence assay
Chain of GSK-3β (P49841 whole entry): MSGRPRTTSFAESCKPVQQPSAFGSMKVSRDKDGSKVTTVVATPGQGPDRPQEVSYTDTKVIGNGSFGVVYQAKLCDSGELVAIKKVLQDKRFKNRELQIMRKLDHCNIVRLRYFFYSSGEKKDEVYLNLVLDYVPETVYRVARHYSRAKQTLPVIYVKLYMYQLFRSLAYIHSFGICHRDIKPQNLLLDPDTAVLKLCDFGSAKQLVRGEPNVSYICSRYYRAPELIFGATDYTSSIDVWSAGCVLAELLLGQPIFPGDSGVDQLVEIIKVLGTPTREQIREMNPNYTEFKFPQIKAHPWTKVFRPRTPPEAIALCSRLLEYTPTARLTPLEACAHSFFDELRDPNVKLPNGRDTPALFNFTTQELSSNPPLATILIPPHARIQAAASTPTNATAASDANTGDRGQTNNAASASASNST

[10] = system: primary glial cultures; experiment: Cytotoxicity (gliotoxicity) in primary glial cultures, MTT; details: 24 h
Description: as §1, §2, §3, §4
different experiments in triplicate.
Mixed glial cultures were obtained from cerebral cortex of 2-5-day-old Sprague-Dawley rats. After removal of blood vessels and meninges, the forebrains were dissociated in DMEM/F12 medium. After mechanical dissociation, cells were plated (3x10^5 cells/ml) in DMEM/F12 medium with 20 % fetal bovine serum (FBS) and 1 % penicillin/streptomycin (10,000 units), at 37 °C and in a 5 % CO2-supplemented air atmosphere. After 5 days, medium was substituted by DMEM/F12 medium with 10 %
FBS. Cells were cultured for 7-10 days before treatment.
as §5, §6, §7, §8
Viability assay by MTT-reduction
as §9
measured by the MTT assay [11].

[11] = system: SH-SY5Y human neuroblastoma cells; experiment: Neuroprotection against okadaic acid (tau hyperphosphorylation), MTT; details: Homo sapiens, SH-SY5Y, 18 h, read-out: cell viability (percentage survival), okadaic acid toxicity
Description: (§16) Cells were pre-incubated with the corresponding compound at 1 μM in neuroblastoma culture medium. After 24 h, the medium was removed and replaced with 1% FBS neuroblastoma culture media containing the corresponding compound at 1 µM and the toxic stimuli, namely a mixture of rotenone and oligomycin A (R/O, 30 μM/10 μM, respectively), okadaic acid (OA) at 20 nM or a high concentration of KCl (70 mM). Cells were co-incubated for further 24 h with the R/O mixture or KCl solution, or 18 h with the OA solution. […] Control cells were incubated with the same amount of dimethyl sulfoxide (DMSO) without any drug. After the co-incubation period, cell viability was assessed by the 3-(4,5-dimethylthiazol-2-yl)-2,5-diphenyltetrazolium bromide (MTT) reduction method [56]; basal condition was considered as 100% survival.
(§17) Neuroprotection in the SH-SY5Y neuroblastoma cell line
(§18) A pre- and co-incubation protocol was followed. Cells were pre-incubated with the
(§19) corresponding compound at 1 M in neuroblastoma culture medium. After 24 h, the
(§20) medium was removed and replaced with 1% FBS neuroblastoma culture media
(§21) containing the corresponding compound at 1 µM and the toxic stimuli, namely a mixture
(§22) of rotenone and oligomycin A (30 M/10 M respectively), okadaic acid at 20 nM or a
(§23) high concentration of potassium chloride (70 mM). Cells were co-incubated for further
(§24) 24 h with the rotenone and oligomycin A or potassium chloride solution, or 18 h with the
(§25) okadaic acid solution. Control cells were incubated with the same amount of DMSO
(§26) and reference compounds in the rotenone-oligomycin A, okadaic acid or high
(§27) concentration of potassium models respectively. After the co-incubation period, cell
(§28) viability was assessed by the MTT-reduction method [11] considering basal conditions
Viability assay by MTT-reduction
as §9, §10, §11, §12, §13, §14, §15
(§29) treatments. The percentage of protection was calculated as follows: the percentage of cell
(§30) survival obtained with the toxic stimuli-treated cells subtracted to 100 was normalized to
(§31) 100 % of cell death. The percentage of protection was obtained by subtracting the
(§32) percentage of cell death in presence of the tested compound to 100 %.

[12] = system: SH-SY5Y human neuroblastoma cells; experiment: Neuroprotection against rotenone/oligomycin A (oxidative stress), MTT; details: 1 μM, rotenone 30 μM / oligomycin A 10 μM, 24 h
Description: as §16, §17, §18, §19, §20, §21, §22, §23, §24, §25, §26, §27, §28
Viability assay by MTT-reduction
as §9, §10, §11, §12, §13, §14, §15, §29, §30, §31, §32

[13] = system: primary glial cultures stimulated with LPS; details: read-out: EC50 Nitrite Reduction; LPS 1 μg/mL; cited from earlier work

SMILES | ORAC (T. Eq.) [1] | IC50 [2] | EC50 ([3]; Rattus norvegicus, LPS 1 μg/mL, 24 h pre-incubation, 18 h co-incubation) | fold more potent as anti-inflammatory than 4f ([3]; ratio of nitrite reduction EC50 values) | VDCC % Response [4] | PAMPA Prediction ([5]; BBB permeability class from Pe) | BBB permeation prediction in words ([5]; PAMPA) | Papp at 4 h, 100 µM [6] | free radical production (H2DCFDA fluorescence) [7] | SH-SY5Y LD50 [8] | IC50 [9] | Ki [9] | Glial cultures LD50 [10] | viability at 1 µM [11] | percentage of protection, R/O toxicity [12] | EC50 [13]
Cc1[nH]nc2c1C(c1ccc(Br)cc1)C(C#N)=C(N)N2 (stereo not shown) [4g, 6-amino-4-(4-bromophenyl)-3-methyl-4,7-dihydro-2H-pyrazolo[3,4-b]pyridine-5-carbonitrile] | 0.96 T. Eq. and 0.96 ± 0.05 T. Eq. | 24100 ± 3740 nM | 4500 ± 600 nM | 2.2 fold | 62% and 62.1 ± 1.6% | CNS+ | predicted to cross the BBB | 7.2 ± 2.4 ×10⁻⁶ cm/s | reduced free radical production to basal conditions | > 100 µM | 2350 ± 1100 nM | 1650 nM | > 100 µM | 86.7% | 59.7% | 
C[S+]([O-])CCCCN=C=S (stereo not shown) [Sulforaphane] |  |  |  |  |  |  |  |  |  |  |  |  |  |  |  | 1400 ± 300 nM
